From patent publication US10708263B2, “Salts and pharmaceutical compositions thereof for the treatment of inflammatory disorders” (Galapagos N.V., priority 2014, dated 2020)
Converted amounts (≈) assume the structure as drawn. Counter-ions that a name gives are not always drawn. Blank lines part the entries; values can stand above or below the molecule they belong to.

Experiments:
[1] = Salt stability and hygroscopicity evaluation; type: physicochemical; conditions: for hygroscopicity of the salt: salt from Protocol 4; for stability of the salt: salt from Protocol 4, XRPD analysis
[2] = Thermodynamic aqueous solubility by HPLC; type: physicochemical; conditions: salt from Protocol 4
[3] = Dog bioavailability study; type: in vivo, beagle dogs
Method: The dogs are not fasted before dosing, and have free access to water. Every day of the treatment, a half food ration is provided after the T0 blood sampling, 8 to 17 min before treatment, and the second half ration is given just after dosing or 1 h after treatment for period 2. A 3 days washout period is ensured between treatments.
The capsule composition is described in Table XX below.
The capsules are administered orally with water (5-10 mL), to provide good oesophageal transit. Each animal is checked at least once daily.
Blood is collected from the jugular vein into lithium heparinised tubes at T0 (before food administration) and then at 1 h, 2 h, 4 h, 6 h, 8 h, 10 h, and 24 h post treatment.
Plasma is then obtained from blood by centrifugation (2500 g for 10 min at 4° C.), and stored at −20° C. until analysis.
After vortex mixing and centrifugation at 4° C., the supernatants are diluted with a 0.5 volume of HPLC grade water in a midi-eppendorf 96-well plate. The plate is sealed and shaken to ensure sample homogeneity prior to analysis.
Pharmacokinetic analysis is performed using WinNonlin™ software version 5.3, using concentrations from individual animals. Non-compartmental analysis is applied to determine the PK parameters (Cmax, Tmax, AUC0-last, t1/2, etc. . . . )
Concentrations below the limit of detection are set to zero for descriptive statistics and PK parameter calculations.

[4] = Solubility study in different solvents; type: physicochemical
Method: The supersaturated solution is then filtered and the concentration of product in the filtrate is determined using UV-spectrometry.
In water, the influence of the pH is adjusted to pH 2, pH 7, and pH 9. HCl and NaOH are used to adjust the pH.

[5] = system: MMP13 levels in human chondrosarcoma cell line SW1353; test: cells; conditions: SW1353, 48 h, read-out: OSM/IL-1β signaling EC50
Method: The cells are seeded in 96 well plates at 15,000 cells/well in a volume of 120 μL DMEM (Invitrogen) containing 10% (v/v) FBS and 1% penicillin/streptomycin (InVitrogen) incubated at 37° C./5% CO2. Cells are preincubated with 15 μL of compound in M199 medium with 2% DMSO 1 hr before triggering with 15 μL OSM and IL-1P to reach 25 ng/mL OSM and 1 ng/mL IL-1β, and MMP13 levels are measured in conditioned medium 48 h after triggering. MMP13 activity is measured using an antibody capture activity assay. For this purpose, 384 well plates (NUNC, 460518, MaxiSorb black) are coated with 35 μL of a 1.5 μg/mL anti-human MMP13 antibody (R&D Systems, MAB511) solution for 24 hrs at 4° C. After washing the wells 2 times with PBS+0.05% Tween, the remaining binding sites are blocked with 100 μL 5% non-fat dry milk (Santa Cruz, sc-2325, Blotto) in PBS for 24 hr at 4° C. […] After incubation for 24 hrs at 37° C. fluorescence of the converted substrate is measured in a Perkin Elmer Wallac EnVision 2102 Multilabel Reader (wavelength excitation: 320 nm, wavelength emission: 405 nm). Percentage inhibition=((fluorescence determined in the presence of vehicle−fluorescence determined for sample with test compound present) divided by (fluorescence determined in the presence of vehicle−fluorescence determined for sample without trigger))*100.

[6] = oral capsules, on average and at the 2 capsule strengths, FIG. 10

Compound: O=C(O)/C=C\C(=O)O [Compound 1 maleic acid salt]
hygroscopicity of the salt [1]: non-hygroscopic

Compound: O=C(Nc1nc2cccc(-c3ccc(CN4CCS(=O)(=O)CC4)cc3)n2n1)C1CC1 [Compound 1, cyclopropanecarboxylic acid {5-[4-(1,1-dioxo-thiomorpholin-4-ylmethyl)-phenyl]-[1,2,4]triazolo[1,5-a]pyridin-2-yl}-amide]
half-life ([3]; male, beagle, plasma, 10 mg/kg, single oral administration, range over both forms and both capsule strengths): 4.43 to 8.96 h | solubility ([4]; 0.01M HCl + 2.0% Tweet 80 (so in the source); presumably Tween 80), pH 2, aqueous with cosolvent or surfactant or cyclodextrin, thermodynamic from solid, 0.01M HCl + 2.0% Tweet 80, 20° C., read-out: Solubility): 313 µg/mL | solubility ([4]; aqueous with cosolvent or surfactant or cyclodextrin, thermodynamic from solid, Acetonitrile/water (1/1), 20° C., read-out: Solubility): 1570 µg/mL (≈ 3690 µM) | solubility ([4]; aqueous with cosolvent or surfactant or cyclodextrin, thermodynamic from solid, HP-β-CD 40% pH 2, 20° C., read-out: Solubility): 577 µg/mL (≈ 1360 µM) | solubility ([4]; aqueous with cosolvent or surfactant or cyclodextrin, thermodynamic from solid, HP-β-CD 40% pH 4, 20° C., read-out: Solubility): 520 µg/mL (≈ 1220 µM) | solubility ([4]; aqueous with cosolvent or surfactant or cyclodextrin, thermodynamic from solid, Water/ethanol 1/1, 20° C., read-out: Solubility): 327 µg/mL (≈ 768 µM) | solubility ([4]; organic solvent or mixture, thermodynamic from solid, Acetone, 20° C., read-out: Solubility): 420 µg/mL (≈ 987 µM) | solubility ([4]; organic solvent or mixture, thermodynamic from solid, Acetonitrile, 20° C., read-out: Solubility): 605 µg/mL (≈ 1420 µM) | solubility ([4]; organic solvent or mixture, thermodynamic from solid, Acetonitrile/water (4/1), 20° C., read-out: Solubility): 3110 µg/mL (≈ 7310 µM) | solubility ([4]; organic solvent or mixture, thermodynamic from solid, Dichloromethane, 20° C., read-out: Solubility): 5660 µg/mL (≈ 13300 µM) | solubility ([4]; organic solvent or mixture, thermodynamic from solid, Ethanol, 20° C., read-out: Solubility): 151 µg/mL (≈ 355 µM) | solubility ([4]; organic solvent or mixture, thermodynamic from solid, Methanol, 20° C., read-out: Solubility): 432 µg/mL (≈ 1020 µM) | solubility ([4]; organic solvent or mixture, thermodynamic from solid, PEG400, 20° C., read-out: Solubility): 1530 µg/mL (≈ 3600 µM) | solubility ([4]; organic solvent or mixture, thermodynamic from solid, Propanol, 20° C., read-out: Solubility): 134 µg/mL (≈ 315 µM) | solubility ([4]; organic solvent or mixture, thermodynamic from solid, Propylene glycol, 20° C., read-out: Solubility): 464 µg/mL (≈ 1090 µM) | solubility ([4]; organic solvent or mixture, thermodynamic from solid, Tetrahydrofuran, 20° C., read-out: Solubility): 740 µg/mL (≈ 1740 µM) | solubility ([4]; organic solvent or mixture, thermodynamic from solid, t-butyl methyl ether, 20° C., read-out: Solubility): < 2.39 µg/mL | solubility ([4]; pH 2, simulated gastric fluid, thermodynamic from solid, 0.01M HCl, 20° C., read-out: Solubility): 288 µg/mL (≈ 677 µM) | solubility ([4]; pH adjusted with HCl/NaOH, aqueous buffer, thermodynamic from solid, Water pH 2, 20° C., read-out: Solubility): 291 µg/mL (≈ 684 µM) | solubility ([4]; pH adjusted with HCl/NaOH, aqueous buffer, thermodynamic from solid, Water pH 7, 20° C., read-out: Solubility): 4.32 µg/mL (≈ 10.2 µM) | solubility ([4]; pH adjusted with HCl/NaOH, aqueous buffer, thermodynamic from solid, Water pH 9, 20° C., read-out: Solubility): 4.29 µg/mL (≈ 10.1 µM) | solubility ([4]; thermodynamic from solid, Water (purified), 20° C., read-out: Solubility): 3.84 µg/mL (≈ 9.02 µM) | EC50 [5]: 2.24 µM

Compound: Cl.O.O.O.O=C(Nc1nc2cccc(-c3ccc(CN4CCS(=O)(=O)CC4)cc3)n2n1)C1CC1 [Compound 1.HCl.3H2O]
in vivo exposure compared with Compound 1 [3, 6]: improved exposure | rate of absorption compared with Compound 1 [3, 6]: more rapidly absorbed | solubility ([4]; 0.005M HCl, 20° C.): 3100 µg/mL

The next lines start with the values.

aqueous solubility [2]: 1900 µg/mL | hygroscopicity of the salt [1]: non-hygroscopic | stability of the salt [1]: stable
Compound: Cl.O=C(Nc1nc2cccc(-c3ccc(CN4CCS(=O)(=O)CC4)cc3)n2n1)C1CC1 [Compound 1 HCl salt]

solubility ([2]; water): 400 µg/mL | stability of the salt [1]: stable
Compound: O=C(Nc1nc2cccc(-c3ccc(CN4CCS(=O)(=O)CC4)cc3)n2n1)C1CC1.O=C(O)/C=C\C(=O)O [Compound 1 maleic acid salt]
